Results as given in patent publication US5420228A, “Fluorescent-labelled bleomycin analogues” (University of Pittsburgh of the Commonwealth System of …, priority 1994, dated 1995).
“Also recorded” adds a separate entry of the source.

Experiments:
[1] = test system: A-253 human head and neck squamous carcinoma cells; experiment: MTT microculture growth inhibition assay, A-253 cells; assay type: cell-based; settings: for IC50: cells exposed to drugs for 4 days, MTT, ± SEM of 16 or more determinations
Description: (§1) A-253 human head and neck squamous carcinoma cells were obtained from the American Type Culture Collection (Rockville, Md.) and were grown in McCoy's medium supplemented with 10% fetal bovine serum (Hyclone, Logan, Utah) as previously described. See, Lazo, J. S., et al., "Characteristics of Bleomycin-resistant Phenotypes of Human Cell Sublines and Circumvention of Bleomycin Resistance by Liblomycin," Cancer Res , 49: 185-190, (1989). The BLM-resistant (C-10E) cell line was derived from A-253 cells as previously described. Id., incorporated by reference herein, and was maintained in the continuous presence of 50 nM BLM. The revertant (C-10E^R) cells were obtained by growing C-10E cells in the absence of BLM for 3 months. Cell lines were maintained at 37° C. in a humidified incubator with 95% air, 5% CO2 atmosphere.
(§2) The effect of drugs on cellular proliferation was determined using the previously described MTT microculture assay. See, Twentyman, P. R., et al., "Study of Some Variables in a Tetrazolium Dye (MTT) Based Assay for Cell Growth and Chemosensitivity," Br. J Cancer, 56: 279-285, (1987). Exponentially growing cells were plated at a density of 2 to 4×10^3 cells per well in 100 μl volume into 96-well microtiter plates (Costar, Cambridge, Mass.). After 3 hours, various concentrations of drugs were added and the plates were incubated for 4 days at 37° C. under humidified 5% CO2 -95% air atmosphere. After 4 days, the medium was replaced with 100 μl of 1 mg/ml MTT in McCoy's medium, and cells were incubated with MTT solution in McCoy's medium for 3 hours at 37° C. Excess MTT was removed, the formazan generated was dissolved in 100 μl DMSO, and the absorbance at wavelength 540 nm was determined spectrophotometrically (Titertek Multiskan; Flow Labs, McLean, Va.). The drug concentrations required to inhibit cell growth by 50% (IC50) were then determined.

[2] = test system: C-10E cells; experiment: MTT microculture growth inhibition assay, BLM-resistant C-10E cells; assay type: cell-based, human; settings: for IC50: cells exposed to drugs for 4 days, MTT, ± SEM; for resistance index C-10E: ratio of IC50 for C-10E cells compared to the IC50 for A-253 cells; for fold resistance of C-10E cells: C-10E clone relative to A-253 cells
Description: as §1, §2

[3] = Fluorescent intensity and quantum yield in solution; assay type: physicochemical; settings: for relative fluorescent units: 1 μM solutions
Description: Absorption spectra were obtained using a Perkin-Elmer (Lambda 2) UV/VIS spectrophotometer. Fluorescence spectra were obtained by using either a Perkin-Elmer 650-10S fluorescent spectrophotometer or a SPEX Fluorolog 2. Proton NMR spectra were recorded with a Bruker 300 MHz pulsed fourier transform spectrometer. The chemical shifts were determined with respect to internal standards: tetramethylsilane or 4-trimethylsilylpropanesulfonic acid.

[4] = test system: form I plasmid pGEM-3Z DNA; experiment: DNA cleavage assay, agarose gel electrophoresis and densitometry; assay type: biochemical; settings: for form I DNA remaining after 1 minute incubation: equipotent concentrations: TLM S10b 0.05 μM, FLM 0.62 μM
Description: The ability of various drugs to cause breakage of covalently closed circular DNA was determined using a slight modification of a previously described DNA cleavage assay. See, Lazo, J. S., et al, "Enhanced Bleomycin-induced DNA Damage and Cytotoxicity with Calmodulin Antagonists," Molec. Pharmacol., 27: 387-393, (1985). Metal-free FLM was first made by chelating the metal with dithizone using a previously described procedure. See, Roy, S. R., et al., "Chemical Synthesis of Radiolabeled Bleomycin A2 and its Binding to DNA," Cancer Res., 41: 4471-4477, (1981), incorporated by reference herein. […] The disappearance of form I DNA and the appearance of form II and form III DNA were assayed by gel electrophoresis with 1.2% agarose gels at room temperature for 15 h at 30 V in a buffer containing 40 mM Tris-acetate and 1 mM EDTA. The gel was then stained with 1 μg/ml ethidium bromide for 1 hour and the DNA visualized by UV irradiation. A negative film of the gel was recorded and scanned using an LKB 2400 GelScan XL densitometer. The effect of incubation time on cleavage of pGEM-3Z DNA by TLM S10b and FLM was also determined using equipotent amounts of TLM S10b and FLM (0.05 and 0.62 μM, respectively) by gel electrophoresis as described above.
Equipotent concentrations of TLM S10b and FLM (0.05 and 0.62 μM, respectively) were incubated with form I DNA for 1, 5, 10, 20 and 30 minutes and the percent form I DNA remaining was calculated from densitometric scanning of the band corresponding to form I. Following incubation with FLM for 1 minute, only 6.5% form I DNA remained undegraded (lane 8). In contrast, 74% form I DNA remained intact following incubation with TLM S10b for 1 minute (lane 3) and 10 minutes incubation was required to cleave 95% of form I (lane 5).

[5] = test system: C-10E^R cells; experiment: MTT microculture growth inhibition assay, revertant C-10E^R cells; assay type: cell-based, human; settings: for resistance index C-10E ®: ratio of IC50 for C-10E ® cells compared to the IC50 for A-253 cells; for IC50: revertant cells, exposed to drugs for 4 days, MTT, ± SEM
Description: as §1, §2

[6] = test system: C-10E cells; experiment: Flow cytometric analysis of cellular FLM content, C-10E cells; assay type: cell-based, human
Description: (§3) For each analysis, a "control" was included in which each cell line was incubated under identical conditions in the absence of FLM. […] Cells were then suspended in 100 μl PBS, fixed with 2% paraformaldehyde in 100 μl PBS and analyzed by flow cytometry using a Becton-Dickinson FAC Star. Analysis was done using a 2 W laser tuned in at 488 nm at an output strength of 200 mW. The band pass filter range =530/30. The total number of cells analyzed was 5,000.
(§4) The cell diameter as measured by Coulter counter was similar for all the three cell lines ([…]).

[7] = test system: A-253 cells; experiment: Cell-associated drug by fluorescent spectrophotometry, A-253 cells; settings: 1 hour, 37° C.
Description: (§5) Exponentially growing A-253, C-10E or C-10E^R cells were harvested and approximately 1.5×10^6 cells were incubated in 200 µl medium at 37° C. for 60 minutes in the presence or absence of 100 μM FLM. Drug incubation was terminated by washing the cells with 3×1 ml of ice-cold PBS, resuspending the cells in 1 ml of 50 mM bicarbonate buffer (pH=9.0) and lysing by sonication (4×5 sec). The cell lysate was centrifuged at 12,000 rpm (Eppendorf Microcentrifuge 5415 C) to remove cellular debris, and the supernatant was filtered through 0.2 μm SPIN-X centrifuge filter unit (Costar, Cambridge, Mass.). The cell-associated fluorescent was measured using a fluorescent spectrophotometer. Autofluorescent associated with cells in the absence of drug treatment was measured and subtracted from the fluorescent value of the drug-treated group.
(§6) To quantify the levels of cell-associated FLM in A253, C-1OE and C-10E^R cell lines, cells were incubated with 100 μM FLM for 1 hour at 37° C. and the cellular fluorescent of the three cell lines were measured by fluorometry.

[8] = test system: A-253 cells; experiment: Flow cytometric analysis of cellular FLM content, A-253 cells; assay type: cell-based, human; settings: 100 μM FLM, 60 minutes, 37° C.
Description: as §3, §4

[9] = test system: C-10E^R cells; experiment: Cell-associated drug by fluorescent spectrophotometry, C-10E^R cells; assay type: cell-based, human; settings: 100 μM FLM, 1 hour, 37° C., fluorometry
Description: as §5, §6

[10] = test system: C-10E^R cells; experiment: Flow cytometric analysis of cellular FLM content, C-10E^R cells; assay type: cell-based, human
Description: as §3, §4

[11] = test system: C-10E cells; experiment: Cell-associated drug by fluorescent spectrophotometry, C-10E cells; assay type: cell-based, human
Description: as §5, §6

[12] = A-253 cells, continuous exposure

Molecule: Cc1c(N)nc([C@H](CC(N)=O)NC[C@H](N)C(N)=O)nc1C(=O)N[C@H](C(=O)N[C@H](C)[C@@H](O)[C@H](C)C(=O)N[C@H](C(=O)NCCc1nc(-c2nc(C(=O)NCCCN(C)CCCN(Cc3ccc(OCc4ccccc4)c(OCc4ccccc4)c3)Cc3ccc(OCc4ccccc4)c(OCc4ccccc4)c3)cs2)cs1)[C@@H](C)O)[C@@H](O[C@@H]1O[C@@H](CO)[C@@H](O)[C@H](O)[C@@H]1O[C@H]1O[C@H](CO)[C@@H](O)[C@H](OC(N)=O)[C@@H]1O)c1cnc[nH]1 [LBM, liblomycin, reference compound]
- IC50 [1]: 500 ± 20 nM
- IC50 [2]: 570 ± 20 nM
- resistance index C-10E [2]: 1.1
- relative fluorescent units [3]: 2.1 relative fluorescent units

Molecule: Cc1c(N)nc([C@H](CC(N)=O)NC[C@H](N)C(N)=O)nc1C(=O)N[C@H](C(=O)N[C@H](C)[C@@H](O)CC(=O)N[C@H](C(=O)NC(O[C@@H]1O[C@@H](C)[C@@H](N)[C@@H](O)[C@H]1O)C(O)c1nc(-c2nc(C(=O)NCCCCN)cs2)cs1)[C@@H](C)O)[C@@H](O[C@@H]1O[C@@H](CO)[C@@H](O)[C@H](O)[C@@H]1O[C@H]1O[C@H](CO)[C@@H](O)[C@H](OC(N)=O)[C@@H]1O)c1cnc[nH]1 (stereo partly drawn) [TLM S10b, talisomycin S10b, reference compound]
- form I DNA remaining undegraded ([4]; 0.05 μM drug, 20 minutes, stoichiometric Fe(II)): 21.1%
- incubation required to cleave 95% of form I DNA ([4]; TLM S10b 0.05 μM): 10 min
- form I DNA remaining after 1 minute incubation [4]: 74%
- IC50 [1]: 50 ± 2.3 nM
- resistance index C-10E ® [5]: 8
- IC50 [5]: 410 ± 9 nM
- fold resistance of C-10E cells [2]: 40- to 50 fold
- IC50 [2]: 2700 ± 23 nM
- resistance index C-10E [2]: 54
- relative fluorescent units [3]: 2.6 relative fluorescent units

Molecule: fluoromycin [FLM]
- mean fluorescent channel number (mean FL1) ([6]; C-10E cells, 100 μM FLM, 60 minutes, 37° C.): 61
- fold difference in fluorescent intensity, C-10E lower than A-253 cells ([6]; flow cytometry of FLM content): 4 fold
- form I DNA remaining after 1 minute incubation [4]: 6.5%
- rate of DNA cleavage relative to TLM S10b ([4]; equipotent doses compared directly): approximately 10 times
- times less potent than TLM S10b in DNA cleavage ([4]; metal-free FLM, stoichiometric Fe(II), 20 minutes): 12 times
- cleavage of plasmid DNA in vitro ([4]; result in words): able to cleave form I DNA; also recorded: cleaves pGEM-3Z plasmid DNA in vitro in a concentration-dependent manner
- times less potent than BLM A2 (antiproliferative potency) [1, 12]: 33 times
- times less potent than TLM S10b (antiproliferative potency) [1, 12]: 25 times
- IC50 [1]: 1250 ± 80 nM
- IC50 value times higher than TLM S10b or BLM A2 ([1]; growth inhibition assay): 25-30 times
- resistance index C-10E ® [5]: 18
- IC50 [5]: 22000 ± 1100 nM
- fold difference in drug accumulation, FLM vs BLM A2 ([7]; 50 μM): ~2 fold
- cell-associated FLM ([7]; 100 μM FLM, fluorometry): 246 pmol/106 cells
- cell-associated drug, comparison of BLM A2 and FLM ([7]; 100 μM drug): 255 pmol/10^6 cells
- cell-associated FLM fold higher than for BLM A2 ([7]; 100 μM): approximately 2.5 fold
- mean fluorescent channel number (mean FL1) [8]: 250
- fold resistance of C-10E cells [2]: 50 fold
- IC50 [2]: 66000 ± 1700 nM
- resistance index C-10E [2]: 53
- cell-associated FLM [9]: 167 pmol/10^6 cells
- mean fluorescent channel number (mean FL1) ([10]; C-10E^R cells, 100 μM FLM, 60 minutes, 37° C.): 122
- fold lower fluorescent intensity, C-10E^R compared to A-253 cells ([10]; flow cytometry of FLM content): 2 fold
- relative fluorescent units [3]: 836 relative fluorescent units
- fluorescent quantum yield ([3]; 50 mM bicarbonate buffer (pH=9.0), excited at 497 nm, emission maximum 523 nm): 0.71
- fluorescent intensity times greater than that of BLM A2, TLM S10b and LBM ([3]; equimolar solutions): 300 to 400 times
- cell-associated FLM ([11]; C-10E cells, 100 μM FLM, 1 hour, 37° C., fluorometry): 123 pmol/10^6 cells
- fold difference in cell-associated FLM, C-10E lower than A-253 cells ([11]; fluorescent spectrophotometry): 2 fold
